Measured values from patent US9452177B2, “Vitamin D compounds and methods for reducing ocular hypertension (OHT)” (Wisconsin Alumni Research Foundation, priority 2008, dated 2016).
“Also recorded” adds a separate entry of the source.

Columns and labels:
[1] = tested on: eyes of ocular normotensive cynomolgus monkeys; experiment: Intraocular pressure (IOP) by Goldmann applanation tonometry after 5 twice-daily unilateral topical treatments; assay type: in vivo, cynomolgus monkeys (Macaca fascicularis); settings: Example 1; for rank order of ocular hypotensive effect: 5 uniocular topical treatments at the same dose; for IOP after the 5th treatment / IOP prior to the 5th treatment compared with baseline: AGR 5 μg n=4, 2MD 6 μg n=8; for IOP prior to the 5th treatment compared with baseline: both treated and control eye
Procedure: Ocular normotensive adult cynomolgus monkeys (Macaca fascicularis), of either sex, weighing 3-7 kg were anesthetized with i.m. ketamine HCl (3-25 mg/kg, supplemented with 1-10 mg/kg) for IOP and topical drop administration. All monkeys were free of any ocular abnormalities according to slit lamp biomicroscopy at the time measurements were taken. The monkeys were provided by the Primate Center at the University of Wisconsin-Madison. All experiments were done in accordance with the ARVO Statement on the Use of Animals in Ophthalmic and Vision Research.
(§1) The intraocular pressure (IOP) was determined with a “minified” Goldmann applanation tonometer [Kaufman, 1980] using HALF AND HALF™ creamer solution (Borden) as the tear film indicator [Croft, 1997] with the monkey lying prone in a head holder and the eyes positioned 4 to 8 cm above the heart. All monkeys were examined by slit-lamp before the first IOP measurement in each protocol. For each eye, two or three IOP measurements were averaged as a baseline.
Under ketamine anesthesia (KETAJECT™, Phoenix Pharmaceutical, St Joseph, Mo. (3-25 mg/kg i.m., supplemented with 1-10 mg/kg i.m. as needed) baseline IOP was determined, usually between 7:30 and 9 am (2 readings, 5 minutes apart; if IOP baseline measurements were not within 2-3 mm Hg of each other, a 3rd reading was taken 5 min later). Baseline IOP was at least 15 mmHg if possible. A baseline blood sample was taken from the femoral artery or vein, or sometimes the brachial vein (1-2 ml). This was allowed to clot and then spun down (3000 rpm for 10 min, Damon/IEC NH-SII centrifuge) and the serum removed and frozen at −20 C for no more than 1 week. Baseline systolic, diastolic and mean arterial pressure as well as heart rate were recorded with the Dinamap monitor from a cuff placed around the arm or the leg.
After baseline measurements, the monkey was place supine with the eye pointing up and the eyelid held open. A 5 μl drop of test material or vehicle was delivered to opposite eyes. The eyelid was held open for at least 30 sec and the eye was maintained in the upward position for an additional 30 sec. The monkey was then returned to its cage and allowed to wake up. In the afternoon, at least 6 hours after the morning treatment, another treatment was administered. On the second day, dosing was repeated in the am and pm.
(§2) On the 3th day, prior to the 5th treatment, baseline IOP, biomicroscopy and MAP were determined. Preliminary studies indicated an effect was observed after these treatments but not after a single treatment. Following the 5th dose, IOP was measured at 1, 2, 3, 4, 5, 6, 7, 8, 12 (if possible), 24, and sometimes 48 hr. Biomicroscopy was done at 1, 3, 6, 24 and sometimes 48 hr. MAP on day 3 (some protocols) was determined at 1, 2, 3, 4, 5, 6, 7, 8, 24 and sometimes 48 hr if possible. Blood samples after the 5th treatment were collected at 6, 24, and sometimes 48 hr. For some protocols, IOP was also measured prior to each treatment; MAP was measured prior to the morning treatment; blood was collected prior to the afternoon treatment. Subsequent screening protocols will not include the MAP and blood collections and will only measure IOP at baseline and prior to and for 1-6 hr after the 5th treatment.
Adult cynomolgus monkeys (Macaca fascicularis) of either sex were anesthetized with intramuscular ketamine HCl (10 mg/kg initial, 5 mg/kg supplemental). Baseline pretreatment IOP was determined by Goldmann applanation tonometry [Kaufman, 1980] with […] used as a tear film indicator [Croft, 1997]. Two baseline IOP measurements were taken 5 minutes apart. […]

[2] = Ocular inflammation by slit-lamp biomicroscopy; assay type: in vivo, cynomolgus monkeys (Macaca fascicularis); settings: Example 1; 5 topical treatments, 5 μg (2MD 6 μg)
Procedure: as §1, §2
Baseline pretreatment IOP was determined by Goldmann applanation tonometry [Kaufman, 1980] with […] used as a tear film indicator [Croft, 1997]. Two baseline IOP measurements were taken 5 minutes apart. Monkeys were then treated topically with 5 μl of 1,25-dihydroxyvitamin D3 (1,25-(OH)2D3) (0.1-5 μg) to one eye and vehicle (propylene glycol) to the opposite eye twice a day for 5 treatments total. […] IOP was also measured prior to the afternoon treatment. On the third day, IOP was measured prior to the morning treatment. Following the fifth treatment, IOP was measured hourly for 8 hours and, in some cases, also at 12, 24, and 48 hours. […]

Row | ocular inflammation [2] | Structure (SMILES) | IOP in treated eye compared with control eye ([1]; 5 μg (2MD 6 μg) in 5 μl propylene glycol one eye, vehicle opposite eye) | rank order of ocular hypotensive effect [1] | IOP in the control (vehicle, contralateral) eye after the 5th treatment ([1]; AGR 5 μg in opposite eye) | IOP after the 5th treatment [1] | IOP prior to the 5th treatment compared with baseline [1]
1 | no ocular inflammation at any time-point | CC(CCCC(C)(C)O)C1CCC2C(=CC=C3CC(O)C(=CCCO)C(O)C3)CCCC21C (stereo not drawn) [AGR, 2-(3′-hydroxypropylidene)-19-nor-1α,25-dihydroxyvitamin D3] | no difference between the eyes at any time-point | 1,25(OH)2D3>2MD>AGR | no change in IOP in the control eye | not significantly decreased in the treated eye except at the 3 hr time point | no different than at baseline
2 | no ocular inflammation at any time-point | C=C1[C@H](O)CC(=C/C=C2\CCC[C@]3(C)[C@@H]([C@@H](C)CCCC(C)(C)O)CC[C@@H]23)C[C@H]1O [2MD, 2-methylene-19-nor-(20S)-1α,25-dihydroxyvitamin D3] |  | 1,25(OH)2D3>2MD>AGR |  | gradually decreased over the next 8 hours similar to the diurnal decline seen with vehicle alone; also recorded: small drug effect at 6 and 7 hours | no different than at baseline
